Legend:
[1] = molecular target: T1, EFHA1 (which binds to Tyk2(C) itself) (Homo sapiens, UniProt Q8IYU8); assay: Tyk2(C) kinase substrate sensor luciferase reporter assay, EFHA1 control interaction; assay type: cell-based; settings: HEK293-T cells, pMet7-HA-Tyk2(C)-p53(N)+pMG1-EFHA1; 0-3333 nM; FIG. 4
T1 construct: expressed in transfected cells; host or cells: HEK293-T
T1 sequence (Q8IYU8 1-434): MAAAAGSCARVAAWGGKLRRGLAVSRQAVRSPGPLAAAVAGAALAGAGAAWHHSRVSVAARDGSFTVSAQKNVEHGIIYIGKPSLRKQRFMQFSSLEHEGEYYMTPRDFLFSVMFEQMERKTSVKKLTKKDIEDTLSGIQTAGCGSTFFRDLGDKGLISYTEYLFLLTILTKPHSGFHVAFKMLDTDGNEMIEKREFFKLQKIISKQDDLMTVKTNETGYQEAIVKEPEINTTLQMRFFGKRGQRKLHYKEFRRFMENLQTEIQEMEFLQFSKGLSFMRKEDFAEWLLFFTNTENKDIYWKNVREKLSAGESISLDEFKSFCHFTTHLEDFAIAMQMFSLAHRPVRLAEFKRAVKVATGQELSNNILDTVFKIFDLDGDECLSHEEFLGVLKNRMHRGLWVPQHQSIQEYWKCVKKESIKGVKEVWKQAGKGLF

Tyk2(C) = assay: Imidazole treatment of the constitutive Tyk2(C)-RTp66 fusion assay, luciferase reporter; assay type: cell-based, human; settings: HEK293-T cells, pMet7-HA-Tyk2(C)-RTp66; 0.5-50 mM imidazole
Description: (§1) Transfections were carried out using a standard calcium phosphate method. HEK293-T cells were seeded in black tissue-culture treated 96-well plates at 10,000 cells/well in 100 μl culture medium (DMEM supplemented with 10% FCS). Twenty-four hours later, plasmid DNA mixes were prepared that contained plasmids encoding fusion proteins with the first and second interacting proteins and reporter plasmids. The DNA was supplemented with 10 μl 2.5M CaCl2) and double distilled water to a final volume of 100 μl. This mixture was added dropwise to 100 μl 2×HeBS buffer (280 mM NaCl, 1.5 mM Na2HPO4, 50 mM Hepes; pH 7.05) while vigorously vortexing. After incubation at room temperature for 15 minutes to allow DNA precipitates to form, the solution was added to the cells at […] Cells were incubated at 37° C., 8% CO2. Forty-eight hours after transfection, luciferase activity was measured using the Luciferase Assay System kit (Promega) on a TopCount luminometer (Perkin-Elmer). Each transfection was done in triplicate and the average of the luciferase activity readings was used in the calculations.
(§2) A Nutlin-3 (Sigma) stock solution of 20 mM in DMSO was diluted in culture medium and added to the cells 24 hours after transfection. Imidazole (Sigma) diluted in culture medium was added to the cells 24 hours after transfection. […]

Tyk2(R1027A) = assay: Imidazole-inducible version of the assay, Tyk2(R1027A)-RTp66 fusion, luciferase reporter; assay type: cell-based, human; settings: HEK293-T cells, 0.5-50 mM imidazole
Description: as §1, §2

Row | signal corresponding to the interaction with EFHA1 [1] | SMILES | imidazole regulation of the signal in cells transfected with the Tyk2(C) fusion (Tyk2(C)) | background signal, Tyk2 fusion construct with unfused gp130 fragment (pMG1) (Tyk2(R1027A); Tyk2 fusion construct + pMG1) | maximal imidazole-dependent induction of the signal (interaction between HIV RTp66 and RTp51) compared to untreated cells (Tyk2(R1027A); pMet7-HA-Tyk2(R1027A)-RTp66+pMG2-RTp51, added 24 hours after transfection) [fold]
1 | unaffected | COc1ccc(C2=N[C@@H](c3ccc(Cl)cc3)[C@@H](c3ccc(Cl)cc3)N2C(=O)N2CCNC(=O)C2)c(OC(C)C)c1 [Nutlin-3] | – | – | –
2 | – | c1c[nH]cn1 [imidazole] | did not exhibit any imidazole regulation | unaffected | 36
